The text below walks through data of ChEMBL document CHEMBL5120779, “Thiazolidinedione-Based Structure Modification of Celastrol Provides Thiazolidinedione-Conjugated Derivatives as Potent Agents against Non-Small-Cell Lung Cancer Cells through a Mitochondria-Mediated Apoptotic Pathway” (J Nat Prod, 2022).

A short description of data set [1]: Cytotoxicity against human MRC5 cells assessed as inhibition of cell growth measured after 96 hrs by MTT assay. It is filed as toxicity, cell-based. (In general: Tetrazolium assays rely on reduction of a dye to a coloured formazan, in cell work by metabolically active cells.)
Data set [2] concerns A549. Kind of data set: cells. Particulars: Homo sapiens, A549, 96 h.
Description: Cytotoxicity against human A549 cells assessed as inhibition of cell growth measured after 96 hrs by MTT assay
A short description of data set [3]: Selectivity index, ratio of IC50 for human MRC5 cells to IC50 for human A549 cells. Format: toxicity. The conditions noted are these: MRC5 cells and A549 cells, read-out: Ratio IC50.
Data set [4] concerns A549. Put plainly: Potency index, ratio of celastrol IC50 to test compound IC50 for cytotoxicity against human A549 cells by MTT assay. It is filed as functional.

`CC1=C(O)C(=O)C=C2C1=CC=C1[C@@]2(C)CC[C@@]2(C)[C@@H]3C[C@](C)(C(=O)N4CCN(C(=O)CN5C(=O)S/C(=C\C6CCCCC6)C5=O)CC4)CC[C@]3(C)CC[C@]12C`: in data set [1], the IC50 (commonly the concentration that inhibits the measured activity by half) at 96 h is 3.61 µM. Moreover, inhibition in data set [2] was half-maximal at 0.55 µM (IC50). The selectivity ratio in data set [3] was 6.56.
The corresponding values for `CC1=C(O)C(=O)C=C2C1=CC=C1[C@@]2(C)CC[C@@]2(C)[C@@H]3C[C@](C)(C(=O)N4CCN(C(=O)CN5C(=O)S/C(=C\c6ccccc6)C5=O)CC4)CC[C@]3(C)CC[C@]12C` are 2.51 µM, 0.4 µM and 6.28.
The matching figures for `COc1ccc(/C=C2\SC(=O)N(CC(=O)N3CCN(C(=O)[C@]4(C)CC[C@]5(C)CC[C@]6(C)C7=CC=C8C(=CC(=O)C(O)=C8C)[C@]7(C)CC[C@@]6(C)[C@@H]5C4)CC3)C2=O)cc1`: 2.04 µM, 0.32 µM and 6.38.
The corresponding values for `CC1=C(O)C(=O)C=C2C1=CC=C1[C@@]2(C)CC[C@@]2(C)[C@@H]3C[C@](C)(C(=O)N4CCN(C(=O)CN5C(=O)S/C(=C\c6ccc(F)cc6)C5=O)CC4)CC[C@]3(C)CC[C@]12C` are 2.75 µM, 0.37 µM and 7.43.
In the case of `CC1=C(O)C(=O)C=C2C1=CC=C1[C@@]2(C)CC[C@@]2(C)[C@@H]3C[C@](C)(C(=O)N4CCN(C(=O)CN5C(=O)S/C(=C\c6cccs6)C5=O)CC4)CC[C@]3(C)CC[C@]12C`, the IC50 at 96 h in data set [1] turned out to be 1.27 µM. In addition, the concentration for half-maximal inhibition (IC50) in data set [2] was 0.36 µM. Further, in data set [3], the selectivity ratio came to 3.53.
The corresponding values for `CC1=C(O)C(=O)C=C2C1=CC=C1[C@@]2(C)CC[C@@]2(C)[C@@H]3C[C@](C)(C(=O)N4CCN(C(=O)CN5C(=O)S/C(=C\c6cccc(C)c6)C5=O)CC4)CC[C@]3(C)CC[C@]12C` are 3.19 µM, 0.53 µM and 6.01.
The matching figures for `CC1=C(O)C(=O)C=C2C1=CC=C1[C@@]2(C)CC[C@@]2(C)[C@@H]3C[C@](C)(C(=O)N4CCN(C(=O)CN5C(=O)S/C(=C\c6cccc(F)c6)C5=O)CC4)CC[C@]3(C)CC[C@]12C`: 3.18 µM, 0.4 µM and 7.95.
The matching figures for `CCCC/C=C1\SC(=O)N(CC(=O)N2CCN(C(=O)[C@]3(C)CC[C@]4(C)CC[C@]5(C)C6=CC=C7C(=CC(=O)C(O)=C7C)[C@]6(C)CC[C@@]5(C)[C@@H]4C3)CC2)C1=O`: 3.44 µM, 0.32 µM and 10.8.
Consider `CC1=C(O)C(=O)C=C2C1=CC=C1[C@@]2(C)CC[C@@]2(C)[C@@H]3C[C@](C)(C(=O)N4CCN(C(=O)CN5C(=O)S/C(=C\c6ccc(Cl)cc6)C5=O)CC4)CC[C@]3(C)CC[C@]12C`, for which the IC50 at 96 h in data set [1] worked out at 3.08 µM. Besides, half-maximal inhibition in data set [2] (IC50) required 0.42 µM. In data set [3], the selectivity ratio stood at 7.33.
In the case of `CC1=C(O)C(=O)C=C2C1=CC=C1[C@@]2(C)CC[C@@]2(C)[C@@H]3C[C@](C)(C(=O)N4CCN(C(=O)CN5C(=O)S/C(=C\C(C)C)C5=O)CC4)CC[C@]3(C)CC[C@]12C`, the IC50 at 96 h in data set [1] was found to be 2.93 µM. The IC50 in data set [2] was 0.09 µM. Besides, the selectivity ratio in data set [3] stood at 32.6. Besides, in data set [4], the “Ratio IC50” value worked out at 12.2.
Turning to `CC1=C(O)C(=O)C=C2C1=CC=C1[C@@]2(C)CC[C@@]2(C)[C@@H]3C[C@](C)(C(=O)N4CCN(C(=O)CN5C(=O)S/C(=C\c6ccc(Br)cc6)C5=O)CC4)CC[C@]3(C)CC[C@]12C`, the IC50 at 96 h in data set [1] was 3.71 µM. In data set [2], the IC50 was found to be 0.51 µM. In addition, in data set [3], the selectivity ratio came to 7.27.
The corresponding values for `CC1=C(O)C(=O)C=C2C1=CC=C1[C@@]2(C)CC[C@@]2(C)[C@@H]3C[C@](C)(C(=O)N4CCN(C(=O)CN5C(=O)S/C(=C\c6ccc(N(C)C)cc6)C5=O)CC4)CC[C@]3(C)CC[C@]12C` are 4.77 µM, 0.94 µM and 5.07.
The corresponding values for `CC1=C(O)C(=O)C=C2C1=CC=C1[C@@]2(C)CC[C@@]2(C)[C@@H]3C[C@](C)(C(=O)N4CCN(C(=O)CN5C(=O)S/C(=C\c6cccc(Cl)c6)C5=O)CC4)CC[C@]3(C)CC[C@]12C` are 3.16 µM, 0.48 µM and 6.58.
The matching figures for `CC1=C(O)C(=O)C=C2C1=CC=C1[C@@]2(C)CC[C@@]2(C)[C@@H]3C[C@](C)(C(=O)N4CCN(C(=O)CN5C(=O)S/C(=C\c6ccco6)C5=O)CC4)CC[C@]3(C)CC[C@]12C`: 1.05 µM, 0.17 µM and 6.18.
On to `COc1cccc(/C=C2\SC(=O)N(CC(=O)N3CCN(C(=O)[C@]4(C)CC[C@]5(C)CC[C@]6(C)C7=CC=C8C(=CC(=O)C(O)=C8C)[C@]7(C)CC[C@@]6(C)[C@@H]5C4)CC3)C2=O)c1`, for which the IC50 at 96 h in data set [1] worked out at 2.38 µM. The compound also returned an IC50 in data set [2] of 0.36 µM. In data set [3], the selectivity ratio worked out at 6.61.
`CC1=C(O)C(=O)C=C2C1=CC=C1[C@@]2(C)CC[C@@]2(C)[C@@H]3C[C@](C)(C(=O)N4CCN(C(=O)CN5C(=O)S/C(=C\c6ccc(C)cc6)C5=O)CC4)CC[C@]3(C)CC[C@]12C`: the IC50 at 96 h in data set [1] is 2.5 µM. The same compound yielded an IC50 in data set [2] of 0.51 µM. Besides, in data set [3], the selectivity ratio came out at 4.91.
The matching figures for `CC1=C(O)C(=O)C=C2C1=CC=C1[C@@]2(C)CC[C@@]2(C)[C@@H]3C[C@](C)(C(=O)N4CCN(C(=O)CN5C(=O)S/C(=C\c6cccc(Br)c6)C5=O)CC4)CC[C@]3(C)CC[C@]12C`: 4.02 µM, 1.06 µM and 3.79.
The corresponding values for `CC1=C(O)C(=O)C=C2C1=CC=C1[C@@]2(C)CC[C@@]2(C)[C@@H]3C[C@](C)(C(=O)N4CCN(C(=O)CN5C(=O)S/C(=C\C6CCCC6)C5=O)CC4)CC[C@]3(C)CC[C@]12C` are 3.21 µM, 0.17 µM and 18.9.
The matching figures for `CC1=C(O)C(=O)C=C2C1=CC=C1[C@@]2(C)CC[C@@]2(C)[C@@H]3C[C@](C)(C(=O)N4CCN(C(=O)CN5C(=O)S/C(=C\c6ccc7c(c6)OCO7)C5=O)CC4)CC[C@]3(C)CC[C@]12C`: 4 µM, 0.35 µM and 9.43.
Consider `CC1=C(O)C(=O)C=C2C1=CC=C1[C@@]2(C)CC[C@@]2(C)[C@@H]3C[C@](C)(C(=O)N4CCN(C(=O)CN5C(=O)CSC5=O)CC4)CC[C@]3(C)CC[C@]12C`, for which, in data set [1], the half-inhibitory concentration (IC50) at 96 h came to 5.7 µM. The same compound returned an IC50 in data set [2] of 1.55 µM. In addition, the selectivity ratio in data set [3] is 3.68.
